Assay results reported in EP0262209B1, “SYNERGISTIC PLANT GROWTH REGULATOR COMPOSITIONS” (RHONE POULENC NEDERLAND B.V., priority 1986, dated 1987).

How the values were obtained:
snapbean plants [1] = experiment: Defoliation of snapbean plants with various ethylene releasing agents (Example XVI, Table M); type: in vivo, Phaseolus vulgaris var. Cranberry
Description: (§1) Solutions of the test compounds and compositions identified in Table C below were prepared by dissolving the compounds in acetone/water (50:50 volume/volume) containing 0.1 percent volume/volume of Triton X-100 surfactant commercially available from Rhom and Haas Company, Philadelphia, Pennsylvania. As detailed below, these solutions of the test compounds and compositions were applied to snapbean plants at a concentration of 0.25 pounds of each active ingredient per acre (0.28 kg/ha) or 0.50 pounds of each active ingredient per acre (0.56 kg/ha). The compositions were applied to the snapbean plants as a mixture. Ethephon is commercially available from Union Carbide Agricultural Products Company, Inc., Research Triangle Park, North Carolina.
(§2) Into 13.5 centimeter diameter plastic pots containing a potting soil mix, i.e., one-third sandy loam soil, one-third peat moss and one-third perlite by volume, were sown three snapbean seeds (Phaseolus vulgaris var. Cranberry). Five to seven days after planting, the plants were thinned to one plant per pot. Ten to fourteen days after planting at the time of full expansion of the primary leaves, each concentration of the test compounds and compositions identified in […] (each pot sprayed with a volume equivalent to 180 gallons per acre) - i.e. 1683 l/ha was applied to three snapbean plants as a foliar spray by use of an aspirated spray apparatus set at 10 psig air pressure (517 mmHg). As a control, a water-acetone solution containing no test compound or composition was also sprayed on three snapbean plants. When dry, all or the plants were placed in a greenhouse at a temperature of 80°F ± 5°F (27°C ± 3°C) and humidity of 50 percent ± 5 percent. At 96 hours after treatment, percent defoliation of the snapbean plants was determined by visual observation. The values obtained For the control and each test compound and composition were averaged to obtain the results in Table C.
In a manner similar to the procedure described in Example VI , the defoliation effect on snapbean plants was determined for representative synergistic compositions at various rates of application using various ethylene releasing agents identified in Table M below. The ethylene releasing agents used in […] are known materials which can be prepared by conventional methods.

cotton [2] = experiment: Defoliation of cotton at various rates (Example XII, Table I); type: in vivo; details: Rate 0.5 Pounds per Acre, alone
Description: (§3) Solutions of the test compounds and compositions identified in Table F were prepared by dissolving the compounds in acetone/water (50:50 volume/volume) containing 0.1 percent volume/volume of Surfel® spray adjuvant commercially available from Union Carbide Corporation, Danbury, Connecticut. As detailed below, these solutions of test compounds and compositions were applied to cotton plants at a concentration of 0.5 pounds of each active ingredient per acre (0,6 kg/ha) or 2.0 pounds of active ingredient per acre (2,2 kg/ha). The compositions were applied to cotton as mixtures.
(§4) The above solutions were applied to cotton plants growing under field conditions at a spray volume equivalent to 100 gallons per acre 935 l/ha) by use of a carbon dioxide backpack sprayer set at about 30 psig air pressure (2 bar). The application timing coincided with a cotton maturity phase equivalent to about 40 percent open bolls. As a control, a water-acetone solution containing no test compound or composition was also sprayed on the cotton plants. At four days after treatment, percent defoliation of the cotton plants was determined by visual observation. At 14 days after treatment, percent boll opening was determined by visual observation of the number of open bolls/total number of bolls. The percent defoliation and percent boll opening values obtained for the control and each of the test compounds and compositions are reported in Table F as the average of three replications. TABLE F
In a manner similar to the procedure described in Example IX , the defoliation effect on cotton was determined for representative synergistic compositions at various rates of application.

snapbean plants [3] = experiment: Defoliation of snapbean plants, foliar spray (Example VI, Table C); type: in vivo, Phaseolus vulgaris var. Cranberry; details: Phaseolus vulgaris, foliar spray, 96 hours after treatment, read-out: Percent Defoliation; for pest or weed control at 280.212 g/ha: Rate 0.25 Pounds per Acre; for pest or weed control at 560.425 g/ha: Rate 0.50 Pounds per Acre
Description: as §1, §2

snapbean plants [4] = experiment: Defoliation of snapbean plants at various rates, 72 hours (Example VII, Table D); type: in vivo, Phaseolus vulgaris var. Cranberry; details: 72 hours after treatment
Description: as §1, §2
In a manner similar to the procedure described in Example VI, the defoliation effect on snapbean plants was determined for representative synergistic compositions at various rates of application except that percent defoliation of the snapbean plants was determined at 72 hours after treatment. TABLE D

mature tobacco plants = experiment: Leaf ripening (chlorosis) of tobacco (Example XV, Table L); type: in vivo; details: Rate 1.0 Pounds per Acre, alone; upper three leaves; 7 days after treatment; control 10
Description: as §1, with “Ethephon is commercially available from Union Carbide Agricultural Products Company, Inc., Research Triangle Park, North Carolina.” left out
(§5) Into 13.5 centimeter diameter plastic pots containing a potting soil mix, i.e., one-third sandy loam soil, one-third peat moss and one-third perlite by volume, were sown three snapbean seeds (Phaseolus vulgaris var. Cranberry). […] At 96 hours after treatment, percent defoliation of the snapbean plants was determined by visual observation. […]
In a manner similar to the procedure described in Example VI except that mature tobacco plants were used in place of snapbean plants, the leaf ripening effect of tobacco was determined for representative synergistic compositions at various rates of application. […] Percent tobacco leaf ripening (chlorosis) was determined by visual observation of the upper three leaves of the tobacco plant at 7 days after treatment. […]

cotton plant = experiment: Regrowth of cotton following defoliation, DEF treated plant as standard (Example XIV, Table K); type: in vivo; details: regrowth relative to DEF standard (43 percent), Rate 0.5 Pounds per Acre, 30 days after treatment; for inhibition at 560.425 g/ha: Gossypium hirsutum, 720 h, read-out: Percent Inhibition
Description: as §3, §4
In a manner similar to the procedure described in Example IX , the effect of cotton regrowth after defoliation was determined for representative synergistic compositions at various rates of application. The percent regrowth inhibition and stimulation in Table R below were determined by visual observation based on the percent of a cotton plant having regrowth using a DEF treated cotton plant as the standard. DEF is commercially available from Mobay Chemical Corporation, Kansas City, Missouri. The average regrowth of a cotton plant treated with DEF was 43 percent. As used in Table R, percent regrowth inhibition resulted from a cotton plant having a regrowth percentage less than 43 percent (DEF standard), and percent regrowth stimulation resulted from a cotton plant having a regrowth percentage greater than 43 percent. The percent regrowth inhibition and stimulation were determined 30 days after treatment.

rank growth cotton = experiment: Defoliation of cotton (rank growth) (Example X, Table G); type: in vivo; details: Rate 2.0 Pounds per Acre
Description: as §3, §4
In a manner similar to the procedure described in Example IX , the defoliation effect on rank growth cotton was determined for representative synergistic compositions at various rates of application. […] TABLE G

cotton plants = experiment: Defoliation and boll opening of cotton under field conditions (Example IX, Table F); type: in vivo; parameters: key to Percent Boil Opening: *: Percent boll opening essentially the same as the control as determined by visual observation; details: Rate 2.0 Pounds per Acre; for Percent Boil Opening: 14 days after treatment, result given by footnote symbol, control 41; for Percent Defoliation: field conditions, four days after treatment
Description: as §3, §4

cotton [5] = experiment: Sequential applications, defoliation of cotton (Example XI, Table H); type: in vivo; details: alone
Description: In a manner similar to the procedure described in Example VI , the defoliation effect on snapbean plants was determined for representative synergistic compositions using both combination (tank mix) and sequential application methods. In the sequential application method, the second compound was applied 78 hours after the first compound. TABLE E
In a manner similar to the procedure described in Example VIII , the defoliation effect on cotton was determined for representative synergistic compositions using sequential application. Ethephon applications were made 7 days after application of the particular malonic acid derivative compound. TABLE H

snapbean plants [6] = experiment: Combination/sequential applications, defoliation of snapbean plants (Example VIII, Table E); type: in vivo, Phaseolus vulgaris var. Cranberry; details: Rate 0.5 Pounds per Acre, applied alone
Description: as §1
as §5, with “Cranberry). Five to seven days after planting, the plants were thinned to one plant per pot.” for “Cranberry).”
In a manner similar to the procedure described in Example VI , the defoliation effect on snapbean plants was determined for representative synergistic compositions using both combination (tank mix) and sequential application methods. […]

snapbean plants [7] = experiment: Abscission of snapbean plant leaves with ethylene gas exposure (Example XVII, Table N); type: in vivo, Phaseolus vulgaris var. Cranberry
cotton [8] = experiment: Defoliation of cotton at various rates (Example XIII, Table J); type: in vivo; details: alone
Description: as §3, §4
In a manner similar to the procedure described in Example IX , the defoliation effect on cotton was determined for representative synergistic compositions at various rates of application. TABLE J

[9] = Concentration 125 ppm foliar spray
[10] = Concentration 250 ppm foliar spray
[11] = Concentration 0.1 ppm ethylene gas

O=P(O)(CCCl)OCCCl [2-Chloroethyl ester of 2-chloroethylphosphonic acid]
Percent Defoliation (snapbean plants [1]; Rate 0.125 Pounds per Acre): 0%
Percent Defoliation (snapbean plants [1]; Rate 0.25 Pounds per Acre): 0%
Percent Defoliation (snapbean plants [1]; Rate 0.50 Pounds per Acre): 0%

NP(N)(=O)CCCl [2-Chloroethylphosphonic diamide]
Percent Defoliation (snapbean plants [1]; Rate 0.125 Pounds per Acre): 0%
Percent Defoliation (snapbean plants [1]; Rate 0.25 Pounds per Acre): 0%
Percent Defoliation (snapbean plants [1]; Rate 0.50 Pounds per Acre): 0%

CCOC(=O)C1(C(=O)Nc2cc(Cl)c(Cl)cc2C)CC1 [Compound 77, ethyl 1-(2-methyl-4,5-dichlorophenylaminocarbonyl)cyclopropanecarboxylate]
Percent Defoliation (cotton [2]): 0%

CCOC(=O)C1(C(=O)Nc2ccc(Cl)cc2Cl)CC1 [Compound 80]
pest or weed control at 280.212 g/ha (snapbean plants [3]): 0%
pest or weed control at 560.425 g/ha (snapbean plants [3]): 0%

CCOC(=O)C1(C(=O)Nc2ccc(Cl)cc2F)CC1 [Compound 82]
pest or weed control at 280.212 g/ha (snapbean plants [3]): 0%
pest or weed control at 560.425 g/ha (snapbean plants [3]): 0%

CCOC(=O)C1(C(=O)Nc2ccc(Br)cc2Cl)CC1 [Compound 88]
pest or weed control at 280.212 g/ha (snapbean plants [3]): 0%
pest or weed control at 560.425 g/ha (snapbean plants [3]): 0%

CCOC(=O)C1(C(=O)Nc2ccc(Br)c(Cl)c2)CC1 [Compound 90]
pest or weed control at 280.212 g/ha (snapbean plants [3]): 0%
pest or weed control at 560.425 g/ha (snapbean plants [3]): 0%

CCOC(=O)C1(C(=O)Nc2ccc(Br)cc2C)CC1 [Compound 96]
Percent Defoliation (snapbean plants [4]; Rate 0.25 Pounds per Acre): 0%
Percent Defoliation (snapbean plants [4]; Rate 0.50 Pounds per Acre): 0%
Percent Ripening (Chlorosis) (mature tobacco plants): 10%
inhibition at 560.425 g/ha (cotton plant): 0%
Percent Stimulation (cotton plant): 0%
Percent Defoliation (cotton [2]): 0%
Percent Defoliation (rank growth cotton): 0%
pest or weed control at 280.212 g/ha (snapbean plants [3]): 0%
pest or weed control at 560.425 g/ha (snapbean plants [3]): 0%
Percent Boil Opening (cotton plants): *
Percent Defoliation (cotton plants): 0%
Percent Defoliation (cotton [5]; Rate 0.5 Pounds per Acre): 0%
Percent Defoliation (cotton [5]; Rate 1.0 Pounds per Acre): 0%
Percent Defoliation (snapbean plants [6]): 0%

Cc1cc(Cl)c(Cl)cc1NC(=O)C1(C(=O)O)CC1 [Compound 110, 1-(2-methyl-4,5-dichlorophenylaminocarbonyl)cyclopropanecarboxylic acid]
Percent Defoliation (cotton [2]): 0%

Cc1cc(Br)ccc1NC(=O)C1(C(=O)O)CC1 [Compound 111]
Percent Abscission 48 Hours (snapbean plants [7]; [9]): 0%
Percent Abscission 96 Hours (snapbean plants [7]; [9]): 17%
Percent Abscission 48 Hours (snapbean plants [7]; [10]): 33%
Percent Abscission 96 Hours (snapbean plants [7]; [10]): 50%
inhibition at 560.425 g/ha (cotton plant): 0%
Percent Stimulation (cotton plant): 0%
Percent Defoliation (rank growth cotton): 0%
pest or weed control at 280.212 g/ha (snapbean plants [3]): 0%
pest or weed control at 560.425 g/ha (snapbean plants [3]): 0%
Percent Defoliation (snapbean plants [1]; Rate 0.125 Pounds per Acre): 0%
Percent Defoliation (snapbean plants [1]; Rate 0.25 Pounds per Acre): 0%
Percent Defoliation (snapbean plants [1]; Rate 0.50 Pounds per Acre): 0%
Percent Defoliation (cotton [8]; Rate 0.25 Pounds per Acre): 0%
Percent Defoliation (cotton [8]; Rate 0.5 Pounds per Acre): 0%
Percent Boil Opening (cotton plants): *
Percent Defoliation (cotton plants): 0%
Percent Defoliation (cotton [5]; Rate 0.5 Pounds per Acre): 0%
Percent Defoliation (cotton [5]; Rate 1.0 Pounds per Acre): 0%

O=C(O)C1(C(=O)Nc2cc(Cl)c(Cl)cc2Cl)CC1 [Compound 112]
pest or weed control at 280.212 g/ha (snapbean plants [3]): 0%
pest or weed control at 560.425 g/ha (snapbean plants [3]): 0%

O=C(O)C1(C(=O)Nc2cc(Cl)ccc2Cl)CC1 [Compound 113]
pest or weed control at 280.212 g/ha (snapbean plants [3]): 0%
pest or weed control at 560.425 g/ha (snapbean plants [3]): 0%

O=C(O)C1(C(=O)Nc2ccc(Cl)cc2Cl)CC1 [Compound 114]
pest or weed control at 280.212 g/ha (snapbean plants [3]): 0%
pest or weed control at 560.425 g/ha (snapbean plants [3]): 0%

O=C(O)C1(C(=O)Nc2ccc(Cl)cc2F)CC1 [Compound 115]
pest or weed control at 280.212 g/ha (snapbean plants [3]): 0%
pest or weed control at 560.425 g/ha (snapbean plants [3]): 0%

O=C(O)C1(C(=O)Nc2ccc(Cl)cc2)CC1 [Compound 116]
pest or weed control at 280.212 g/ha (snapbean plants [3]): 0%
pest or weed control at 560.425 g/ha (snapbean plants [3]): 0%

O=C(O)C1(C(=O)Nc2ccc(Br)cc2)CC1 [Compound 117]
pest or weed control at 280.212 g/ha (snapbean plants [3]): 0%
pest or weed control at 560.425 g/ha (snapbean plants [3]): 0%

O=C(O)C1(C(=O)Nc2ccc(Br)cc2Br)CC1 [Compound 120]
pest or weed control at 280.212 g/ha (snapbean plants [3]): 0%
pest or weed control at 560.425 g/ha (snapbean plants [3]): 0%

O=C(O)C1(C(=O)Nc2ccc(Br)cc2Cl)CC1 [Compound 121]
pest or weed control at 280.212 g/ha (snapbean plants [3]): 0%
pest or weed control at 560.425 g/ha (snapbean plants [3]): 0%

O=C(O)C1(C(=O)Nc2ccc(Cl)cc2Br)CC1 [Compound 122]
pest or weed control at 280.212 g/ha (snapbean plants [3]): 0%
pest or weed control at 560.425 g/ha (snapbean plants [3]): 0%

O=C(O)C1(C(=O)Nc2ccc(Br)c(Cl)c2)CC1 [Compound 123]
pest or weed control at 280.212 g/ha (snapbean plants [3]): 0%
pest or weed control at 560.425 g/ha (snapbean plants [3]): 0%

C=C [Ethylene Gas, ethylene, reference compound]
Percent Abscission 48 Hours (snapbean plants [7]; [11]): 0%
Percent Abscission 96 Hours (snapbean plants [7]; [11]): 0%
